By Ki is commonly meant the dissociation constant of the complex between target and ligand, obtained from inhibition or displacement. Low values mean higher affinity, high ones lower affinity. A word on the IC50: it is the concentration that gives 50% inhibition.

This note sets out measurements from patent publication US20230203041A1, “ANTAGONISTS OF THE ADENOSINE A2A RECEPTOR” (AdoRx Therapeutics Limited, priority 2020, published 2023).

A value given as a limit tells only on which side of the number the result lay.

The target in experiment [1] is T1, human Adenosine A2a receptor (Homo sapiens, UniProt P29274).
T1 construct: expressed in transfected cells; host or cells: CHO cell membranes
Kind of experiment: Adenosine receptor TR-FRET binding assay (CA200645 displacement), A2a. The conditions noted are these: 100 nM CA200645, CHO cell membranes, 2 hours at room temperature. In general terms: In TR-FRET formats the signal depends on donor and acceptor labels being close together.

Experiment [2] concerns the target T2, human Adenosine A2b receptor (Homo sapiens, UniProt P29275).
T2 construct: expressed in transfected cells; host or cells: CHO cell membranes
T2 sequence (P29275 1-332): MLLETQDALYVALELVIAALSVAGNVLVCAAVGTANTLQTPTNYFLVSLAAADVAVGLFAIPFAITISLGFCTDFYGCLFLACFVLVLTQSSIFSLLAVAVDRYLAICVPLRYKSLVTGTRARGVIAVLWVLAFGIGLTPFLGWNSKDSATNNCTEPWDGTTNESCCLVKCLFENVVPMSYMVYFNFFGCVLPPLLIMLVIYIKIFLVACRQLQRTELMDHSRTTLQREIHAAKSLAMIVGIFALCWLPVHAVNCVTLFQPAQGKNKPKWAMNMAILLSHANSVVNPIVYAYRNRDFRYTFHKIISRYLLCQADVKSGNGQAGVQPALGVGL
Put plainly: Adenosine receptor TR-FRET binding assay (CA200645 displacement), A2b. The conditions noted are these: 30 nM CA200645, CHO cell membranes, 2 hours at room temperature.

The subject of another experiment is human PBMCs. Put plainly: CD3/CD28 stimulated IL-2 release NECA reversal assay in human PBMCs.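 Note: dose-response as % inhibition where 100% equals no-NECA control wells with CD3/CD28.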 The experiment is classed as cell-based. To be noted: PBMC, CD3/CD28 antibody stimulated, 1 uM NECA, 24 hours, IL-2 in culture supernatant. Put shortly: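 PBMCs from citrated donor blood, 50,000 cells/well on plate-bound CD3 antibody (1 ug/ml), with 1 ug/ml CD28 antibody, 1 uM NECA and antagonist at 0.003-10 μM final. After 24 h at 37° C, supernatant IL-2 was measured by MSD immunoassay.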

Experiment [3] relates to CD8+ T cells in human whole blood. Kind of experiment: Measurement of pCREB in CD8+ T cells in human whole blood. Type of experiment: cell-based. The conditions noted are these: T-cell, 1 h; heparinised human whole blood, rolipram, 3 μM NECA, 60 min, phospho-CREB in CD8+ T cells by FACS. The method, boiled down: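 Heparinised human whole blood preincubated 20 min at 37 °C with serially diluted A2a antagonists plus rolipram, then stimulated 60 min with 3 μM NECA (final). After fixation and RBC lysis, permeabilized leukocytes stained for phospho-CREB and CD8; pCREB in CD8+ T cells read by flow cytometry.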
(In general: In flow cytometry, cells or beads pass a laser one at a time.)

Experiment [4] addresses T3, human Adenosine A1 receptor (Homo sapiens, UniProt P30542).
T3 sequence (P30542 1-326): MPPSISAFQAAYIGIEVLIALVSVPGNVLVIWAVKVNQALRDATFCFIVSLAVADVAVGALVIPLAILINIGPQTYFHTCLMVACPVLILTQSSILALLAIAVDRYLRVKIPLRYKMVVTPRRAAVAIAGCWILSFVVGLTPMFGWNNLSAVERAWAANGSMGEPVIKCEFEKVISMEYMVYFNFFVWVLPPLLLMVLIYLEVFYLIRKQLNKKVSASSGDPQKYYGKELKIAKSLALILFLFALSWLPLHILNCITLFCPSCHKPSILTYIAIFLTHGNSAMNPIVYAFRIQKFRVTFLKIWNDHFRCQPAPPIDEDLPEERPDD
Put plainly: Adenosine receptor TR-FRET binding assay (CA200645 displacement), A1.

Experiment [5] addresses T4, human Adenosine A3 receptor (Homo sapiens, UniProt P0DMS8).
T4 sequence (P0DMS8 1-318): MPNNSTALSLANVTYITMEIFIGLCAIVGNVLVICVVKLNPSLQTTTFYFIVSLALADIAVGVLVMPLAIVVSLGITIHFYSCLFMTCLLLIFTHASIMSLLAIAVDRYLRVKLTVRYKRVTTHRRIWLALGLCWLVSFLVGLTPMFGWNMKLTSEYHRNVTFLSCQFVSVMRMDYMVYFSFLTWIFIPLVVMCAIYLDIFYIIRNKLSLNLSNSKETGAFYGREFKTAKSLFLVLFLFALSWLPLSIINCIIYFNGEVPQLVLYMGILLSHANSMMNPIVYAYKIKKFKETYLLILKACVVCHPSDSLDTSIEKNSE
Kind of experiment: Adenosine receptor TR-FRET binding assay (CA200645 displacement), A3.
Experimental: All FRET binding experiments were conducted at room temperature in white 384-well plates, in assay binding buffer containing 1×LabMed (Cisbio, France), 100 μg/mL saponin, 1% DMSO and 0.02% pluronic acid. Binding of the fluorescently labelled Adenosine receptor antagonist XAC (CA200645, FRET acceptor) to terbium-labelled A1, A2a, A2b and A3 adenosine receptors (FRET donors) was detected by time-resolved FRET due to the close proximity of the donor and acceptor in a binding event. To investigate the ability of unlabelled test compounds to bind to Adenosine A1, A2a, A2b and A3 receptors, dose response curves were constructed that determined the ability of a range of concentrations to inhibit the binding of 30 nM CA200645 to the A2b receptor and 100 nM CA200645 to the A1, A2a, and A3 receptor.
Serial dilution (1:3 dilutions) of test compounds in neat DMSO and transfer of a 400 nL sample of test compound into the assay plate was carried out using the Mosquito (TTP Labtech, UK). The compound samples were incubated for 2 hours at room temperature with a fixed concentration of CA200645 defined for each receptor (see above) and CHO cell membranes containing the human Adenosine A1 (0.5 μg/well), A2a (0.3 μg/well), A2b (1 μg/well) or A3 (1 μg/well) receptor in 40 μL of assay buffer. Total and non-specific binding of CA200645 was determined in the absence and presence of 10 μM XAC, respectively. Following 2 hours incubation, the level of CA200645 binding was detected on a Pherastar FSX (BMG Labtech, Germany) using standard TR-FRET settings. The terbium donor was excited with three laser flashes at a wavelength of 337 nm, and donor and acceptor emission was detected at 620 nm and 665 nm wavelengths, respectively. FRET ratios were obtained by multiplying the acceptor/donor ratio value by 10,000. Specific binding was determined by subtracting the non-specific binding FRET ratio from the total binding FRET ratio. Compound IC50 curves were analysed using GraphPad Prism 7.0 (GraphPad, USA) and Ki affinity values were determined from the obtained IC50 values using the method of Cheng and Prusoff.

T1 sequence (P29274 whole entry): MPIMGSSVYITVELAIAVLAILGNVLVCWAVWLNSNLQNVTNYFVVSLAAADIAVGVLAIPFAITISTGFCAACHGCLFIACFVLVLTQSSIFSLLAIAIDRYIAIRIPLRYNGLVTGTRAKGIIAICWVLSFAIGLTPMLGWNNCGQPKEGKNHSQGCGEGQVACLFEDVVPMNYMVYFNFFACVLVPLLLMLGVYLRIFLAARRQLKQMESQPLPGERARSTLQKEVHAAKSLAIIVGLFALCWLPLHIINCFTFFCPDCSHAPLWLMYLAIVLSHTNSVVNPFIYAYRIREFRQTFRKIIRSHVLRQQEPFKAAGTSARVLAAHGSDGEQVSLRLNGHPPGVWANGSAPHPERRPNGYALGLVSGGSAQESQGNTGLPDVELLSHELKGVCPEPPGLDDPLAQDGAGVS

Take `COc1cc(-c2c(-c3cccc(C#N)c3)nn3ccc(N)nc23)cc(C)n1` [Example 26.2, 3-[5-Amino-3-(2-methoxy-6-methyl-4-pyridyl)pyrazolo[1,5-a]pyrimidin-2-yl]benzonitrile]: the Ki came out at 6.2 nM in experiment [1], 18 nM in experiment [2], 123 nM in experiment [4] and 2520 nM in experiment [5]. In addition, the half-maximal inhibitory concentration (IC50) came to 69 nM with human PBMCs and 2540 nM in experiment [3].

On to `Cc1cc(-c2c(-c3cccc(C#N)c3)nn3ccc(N)nc23)cc(N)n1` [Example 27.1, 3-[5-Amino-3-(2-amino-6-methyl-4-pyridyl)pyrazolo[1,5-a]pyrimidin-2-yl]benzonitrile], for which the inhibition constant Ki was 9.2 nM in experiment [1], 43 nM in experiment [2], 62 nM in experiment [4] and over 1000 nM in experiment [5]. The IC50 with human PBMCs was 36 nM; in experiment [3], 740 nM.

In the case of `Cc1cc(-c2c(-c3cccc(C#N)c3)nn3ccc(NC(N)=O)nc23)cc(Cl)n1` [Example 30, [3-(2-Chloro-6-methyl-4-pyridyl)-2-(3-cyanophenyl)pyrazolo[1,5-a]pyrimidin-5-yl]urea], the inhibition constant Ki is 0.8 nM in experiment [1], 5 nM in experiment [2], 57 nM in experiment [4] and over 1000 nM in experiment [5]. In addition, the IC50 in the experiment with human PBMCs amounted to 21 nM; in experiment [3] it was 640 nM.

Turning to `Cc1cc(-c2c(-c3cccc(C#N)c3)nn3ccc(NC(N)=O)nc23)cc(C)n1` [Example 30.3, [2-(3-Cyanophenyl)-3-(2,6-dimethyl-4-pyridyl)pyrazolo[1,5-a]pyrimidin-5-yl]urea], the Ki in experiment [1] was 1.8 nM; in experiment [2] it was 14 nM; in experiment [4] it was 47 nM; in experiment [5], over 1000 nM. The IC50 in the experiment with human PBMCs came out at 50 nM; in experiment [3] it was 120 nM.

Take `Cc1cc(-c2c(-c3cccc(C#N)c3)nn3ccc(N/C(=N\C#N)NC(C)C)nc23)cc(Cl)n1` [Example 32.1, 1-[3-(2-Chloro-6-methyl-4-pyridyl)-2-(3-cyanophenyl)pyrazolo[1,5-a]pyrimidin-5-yl]-2-cyano-3-isopropyl-guanidine]: the Ki worked out at 0.2 nM in experiment [1], 1 nM in experiment [2], 10 nM in experiment [4] and 115 nM in experiment [5]. For the same compound, the half-maximal inhibitory concentration (IC50) in the experiment with human PBMCs was found to be 9 nM; in experiment [3] it was 1180 nM.

As for `Cc1cc(-c2c(-c3cccc(C#N)c3)nn3ccc(N/C(=N\C#N)NCC(C)(C)O)nc23)cc(Cl)n1` [Example 32.2, 1-[3-(2-Chloro-6-methyl-4-pyridyl)-2-(3-cyanophenyl)pyrazolo[1,5-a]pyrimidin-5-yl]-2-cyano-3-(2-hydroxy-2-methyl-propyl)quanidine], the Ki in experiment [1] is 0.8 nM; in experiment [2] it was 5 nM; in experiment [4], 29 nM; in experiment [5], over 1000 nM. The values for the IC50 (with human PBMCs; in experiment [3]) were 16 nM and 490 nM, respectively.

On to `Cc1cccnc1CNc1ccn2nc(-c3ccco3)c(C#N)c2n1` [Example 37, 2-(2-Furyl)-5-[(3-methyl-2-pyridyl)methylamino]pyrazolo[1,5-a]pyrimidine-3-carbonitrile], for which the Ki in experiment [1] was determined as 0.3 nM; in experiment [2], 22 nM; in experiment [4], 5 nM; in experiment [5] it was 186 nM. Also, the half-maximal inhibitory concentration (IC50) turned out to be 13 nM in the experiment on human PBMCs and 1460 nM in experiment [3].

Take `Cc1cc(-c2c(-c3cccc(C#N)c3)nn3ccc(C(=O)N[C@@H](C)C(C)(C)O)nc23)cc(C)n1` [Example 92, 2-(3-Cyanophenyl)-3-(2,6-dimethyl-4-pyridyl)-N-[(1S)-2-hydroxy-1,2-dimethyl-propyl]pyrazolo[1,5-a]pyrimidine-5-carboxamide]: the Ki in experiment [1] came to 0.4 nM; in experiment [2], 37 nM; in experiment [4], 107 nM; in experiment [5], 1470 nM. Moreover, the IC50 in the experiment on human PBMCs turned out to be 4 nM; in experiment [3] it was 20 nM.
